This note sets out measurements from ChEMBL document CHEMBL1201862, “PubChem BioAssay data set” (2004).

SMILES strings stand for the structures.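 Values below derive from 48-hour exposures of cells grown in 96-well plates, with endpoints linearly interpolated between the two concentrations bracketing the appropriate inhibition level. Abbreviation: GI50, concentration required for 50% inhibition of growth.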 The source made the active and inactive calls. Cut-off read from the data, not from the text of the source: active = GI50 up to about 1.1 µM and inactive = higher.

Test systems include 786-0; ACHN; COLO 205; DU-145; HCC 2998; HCT-15; IGROV-1; MCF7; MDA-MB-231; MDA-N; MOLT-4; RXF 393; SF-295; SK-MEL-28; SK-MEL-5; SW-620; UACC-62; UO-31; SK-MEL-2.
Common to all, as to experiment: NCI tumour cell line growth inhibition, 48 h

Turning to `NNC(=O)c1ccc[n+](CCc2ccccc2)c1`, the GI50 in the assay with 786-0 is > 100 µM (inactive); in the assay on ACHN it was > 100 µM (inactive); with COLO 205, > 100 µM (inactive); in the assay with DU-145 it was > 100 µM (inactive); with HCC 2998, > 100 µM (inactive); with HCT-15, over 100 µM. The GI50 in the assay on IGROV-1, in the assay on MCF7, in the assay with MDA-MB-231, with MDA-N, in the assay with MOLT-4 and in the assay with RXF 393 was > 100 µM (inactive) throughout. Further, the GI50 in the assay on SF-295, in the assay on SK-MEL-28, with SK-MEL-5, with SW-620, in the assay with UACC-62 and in the assay with UO-31 was > 100 µM (inactive) in each case.
In the case of `CC(C)C1N(C)c2ccc(Cl)cc2[C@H]2c3ccccc3CCN12` (stereo partly drawn), the GI50 is > 100 µM (inactive) in the assay with 786-0; 82.2 µM (inactive) in the assay with ACHN; 36.4 µM (inactive) in the assay on COLO 205; 53.5 µM (inactive) in the assay on DU-145; 37.1 µM in the assay with HCT-15; 23.4 µM (inactive) in the assay with IGROV-1. The GI50 in the assay with MCF7 was 30.7 µM (inactive); in the assay on MDA-MB-231, 24.4 µM (inactive); with MDA-N, 26.1 µM (inactive); in the assay on MOLT-4 it was 37.8 µM (inactive); in the assay with RXF 393, 47.5 µM (inactive); in the assay on SF-295, 18.2 µM (inactive). Besides, the GI50 was 54.8 µM (inactive) in the assay with SK-MEL-28; 25.9 µM (inactive) in the assay on SK-MEL-2; 97.3 µM (inactive) with SW-620; 25.4 µM (inactive) with UACC-62; 98.4 µM (inactive) in the assay on UO-31.
On to `Cc1cn2c(/C=C3/C(=O)Nc4cccc(Cl)c43)c(Cl)nc2s1`, for which the GI50 in the assay with 786-0 was 18.5 µM (inactive); in the assay on ACHN, 20.6 µM (inactive); in the assay with DU-145 it was > 100 µM (inactive); in the assay on HCC 2998, 6.34 µM (inactive); in the assay with HCT-15, over 100 µM; with IGROV-1, > 100 µM (inactive). Also, the GI50 is > 100 µM (inactive) in the assay on MCF7; 15.3 µM (inactive) with MDA-MB-231; > 100 µM (inactive) in the assay with MDA-N; > 100 µM (inactive) in the assay with MOLT-4; 25.4 µM (inactive) with RXF 393; 36.3 µM (inactive) in the assay with SF-295. The GI50 in the assay on SK-MEL-28 was 1.12 µM (inactive); in the assay on SW-620 it was 3.18 µM (inactive); in the assay with UACC-62, 19.6 µM (inactive); in the assay with UO-31, > 100 µM (inactive).
With `O=c1c2c(nc3[nH]ccn13)CCC2`, the GI50 was > 10 µM (inactive) with 786-0; > 10 µM (inactive) in the assay on ACHN; > 10 µM (inactive) in the assay on COLO 205; > 10 µM (inactive) in the assay on DU-145; over 10 µM in the assay with HCT-15; > 10 µM (inactive) in the assay with IGROV-1. Besides, the GI50 with MCF7, with MDA-MB-231, with MDA-N, with MOLT-4, in the assay on RXF 393 and with SF-295 was > 10 µM (inactive) each time. Moreover, the GI50 in the assay with SK-MEL-28, with SK-MEL-2, with SK-MEL-5, with SW-620, in the assay on UACC-62 and in the assay with UO-31 was > 10 µM (inactive) in each case.
On to `CCOC(=O)[C@@H]1ON2O[C@H](OC3CCCCC3c3ccccc3)C[C@H]3OC(=O)[C@@H]1C32` (stereo partly drawn), for which the GI50 in the assay on 786-0 is > 100 µM (inactive); with ACHN, > 100 µM (inactive); in the assay on COLO 205 it was > 100 µM (inactive); with DU-145 it was > 100 µM (inactive); with HCC 2998 it was 64.6 µM (inactive); in the assay on HCT-15, over 100 µM. In addition, the GI50 with IGROV-1, in the assay with MCF7, in the assay with MDA-MB-231, in the assay on MDA-N, in the assay on MOLT-4 and with RXF 393 was > 100 µM (inactive) each time. For the same molecule, the GI50 in the assay with SF-295, in the assay with SK-MEL-5, in the assay on SW-620, in the assay on UACC-62 and in the assay on UO-31 was > 100 µM (inactive) throughout.
On to `COC(=O)c1cc(NC(=O)c2cc(NC(=O)Cc3c[nH]c4ccccc34)cn2C)cn1C`, for which the GI50 with 786-0 is 56.9 µM (inactive); in the assay with ACHN, 35.7 µM (inactive); in the assay on COLO 205 it was 24.2 µM (inactive); in the assay on DU-145, > 100 µM (inactive); in the assay on HCT-15, 42.8 µM; in the assay with MCF7 it was 36.5 µM (inactive). Besides, the GI50 in the assay with MDA-MB-231 was 25.9 µM (inactive); in the assay with MDA-N, 37.2 µM (inactive); with MOLT-4 it was 30.7 µM (inactive); with RXF 393, 31.3 µM (inactive); in the assay on SF-295 it was 36.3 µM (inactive); with SK-MEL-28, 35.9 µM (inactive). Further, the GI50 in the assay with SK-MEL-2 was 19.6 µM (inactive); with SK-MEL-5, 16 µM (inactive); with SW-620 it was 57.1 µM (inactive); with UACC-62 it was 20.2 µM (inactive); in the assay on UO-31 it was 23.5 µM (inactive).
As to `CC(C)OP(=O)(OC(C)C)C(C(C)C)N(C)/C(F)=N/C(F)(F)F` (stereo not drawn), the GI50 in the assay with 786-0 was > 100 µM (inactive); in the assay with ACHN it was > 100 µM (inactive); in the assay with COLO 205, > 100 µM (inactive); in the assay with DU-145, > 100 µM (inactive); in the assay on HCC 2998, > 100 µM (inactive); in the assay with HCT-15, over 100 µM. Besides, the GI50 in the assay on IGROV-1 is > 100 µM (inactive); in the assay with MCF7, > 100 µM (inactive); in the assay on MDA-MB-231, > 100 µM (inactive); with MDA-N, > 100 µM (inactive); in the assay on MOLT-4, 75.7 µM (inactive); in the assay on RXF 393, > 100 µM (inactive). Moreover, the GI50 with SF-295, in the assay with SK-MEL-28, in the assay on SK-MEL-5, in the assay on SW-620, with UACC-62 and in the assay on UO-31 was > 100 µM (inactive) in each case.
Take `Oc1ccc([C@H]2c3c(O)cc(O)cc3C3c4c(cc(O)cc4[C@@H]2[C@H]2c4cc(O)cc5c4C(c4cc(O)cc(O)c4[C@@H]2c2ccc(O)cc2)[C@@H](c2ccc(O)cc2)O5)O[C@@H]3c2ccc(O)cc2)cc1` (stereo partly drawn): the GI50 in the assay with 786-0 was 4.94 µM (inactive); in the assay with ACHN, 6.93 µM (inactive); with COLO 205, 0.348 µM (active); with DU-145 it was 2.99 µM (inactive); with HCC 2998, 0.452 µM (active); in the assay with HCT-15 it was over 100 µM. Besides, the GI50 is 6.73 µM (inactive) in the assay with IGROV-1; 0.955 µM (active) in the assay with MCF7; > 100 µM (inactive) with MDA-MB-231; 0.871 µM (active) in the assay with MDA-N; 0.975 µM (active) with MOLT-4; 0.0486 µM (active) in the assay on RXF 393. Further, the GI50 in the assay with SF-295 is 3.86 µM (inactive); in the assay with SK-MEL-28, 0.182 µM (active); in the assay with SK-MEL-2, 1.58 µM (inactive); in the assay with SK-MEL-5 it was 7.41 µM (inactive); in the assay on UACC-62, 0.15 µM (active).
